For orientation: IC50 means the concentration that inhibits the measured activity by half.

The values below come from patent US20240360157A1, “TYK2 INHIBITORS” (BIOGEN MA INC., priority 2021, published 2024).

What all share (assay type): biochemical
In assay [1] the target is human JAK1 catalytic kinase (JH1) domain (Homo sapiens (Human), UniProt P23458). Put plainly: ADP-Glo Kinase Assay, recombinant JAK1 catalytic kinase (JH1) domain. To be noted: recombinant JH1 domain 4 nM, 35 μM ATP, JAK3-342 peptide, mean, read-out: JAK1 biochem IC50 (nM) Mean. In short, it runs like this:
(§1)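 Reactions ran 100 min with 50 μM substrate peptide (JAK3-342 for JAK1 at 4 nM enzyme; JAK3-974 for JAK2 0.2 nM, JAK3 0.3 nM, TYK2 2 nM), and ADP formed was read by ADP-Glo luminescence. Eleven-point 3-fold series from 10 or 1 μM; IC50 fitted by 4-parameter logistic model.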
A general note: In ADP-Glo the light output rises with the ADP produced.

Assay [2] has as its target human JAK2 catalytic kinase (JH1) domain (Homo sapiens (Human), UniProt O60674). Briefly: ADP-Glo Kinase Assay, recombinant JAK2 catalytic kinase (JH1) domain. The settings on record: recombinant JH1 domain 0.2 nM, 15 μM ATP, JAK3-974 peptide, mean, read-out: JAK2 biochem IC50 (nM) Mean. In short, it runs like this:
as §1

The target in assay [3] is human JAK3 catalytic kinase (JH1) domain (Homo sapiens (Human), UniProt P52333). Put plainly: ADP-Glo Kinase Assay, recombinant JAK3 catalytic kinase (JH1) domain. To be noted: recombinant JH1 domain 0.3 nM, 4 μM ATP, JAK3-974 peptide, mean, read-out: JAK3 biochem IC50 (nM) Mean. A digest of the protocol: as §1
Sequence of human JAK3 catalytic kinase (JH1) domain (P52333 822-1111): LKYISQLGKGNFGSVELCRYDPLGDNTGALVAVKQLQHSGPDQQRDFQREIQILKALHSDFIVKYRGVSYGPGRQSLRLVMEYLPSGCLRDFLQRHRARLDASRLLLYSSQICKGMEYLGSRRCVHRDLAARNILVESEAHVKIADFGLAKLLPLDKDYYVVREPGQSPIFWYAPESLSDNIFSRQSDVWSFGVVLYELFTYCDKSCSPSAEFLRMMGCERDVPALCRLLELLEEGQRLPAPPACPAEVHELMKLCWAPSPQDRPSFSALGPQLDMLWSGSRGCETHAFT
Assay [4] concerns the target human TYK2 catalytic kinase (JH1) domain (Homo sapiens (Human), UniProt P29597). Briefly: ADP-Glo Kinase Assay, recombinant TYK2 catalytic kinase (JH1) domain. The settings on record: recombinant JH1 domain 2 nM, 10 μM ATP, JAK3-974 peptide, mean, read-out: TYK2 biochem IC50 (nM) Mean. A digest of the protocol:
as §1

Molecules are shown by their SMILES.

Sequence of human JAK2 catalytic kinase (JH1) domain (O60674 849-1124): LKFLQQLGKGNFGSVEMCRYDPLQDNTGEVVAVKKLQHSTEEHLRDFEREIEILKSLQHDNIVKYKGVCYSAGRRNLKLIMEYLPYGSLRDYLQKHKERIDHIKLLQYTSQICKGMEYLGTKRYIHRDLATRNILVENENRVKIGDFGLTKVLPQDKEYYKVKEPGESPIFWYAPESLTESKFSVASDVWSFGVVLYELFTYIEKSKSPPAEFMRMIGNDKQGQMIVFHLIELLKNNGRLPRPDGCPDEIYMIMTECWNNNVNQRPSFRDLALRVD
Sequence of human JAK1 catalytic kinase (JH1) domain (P23458 875-1153): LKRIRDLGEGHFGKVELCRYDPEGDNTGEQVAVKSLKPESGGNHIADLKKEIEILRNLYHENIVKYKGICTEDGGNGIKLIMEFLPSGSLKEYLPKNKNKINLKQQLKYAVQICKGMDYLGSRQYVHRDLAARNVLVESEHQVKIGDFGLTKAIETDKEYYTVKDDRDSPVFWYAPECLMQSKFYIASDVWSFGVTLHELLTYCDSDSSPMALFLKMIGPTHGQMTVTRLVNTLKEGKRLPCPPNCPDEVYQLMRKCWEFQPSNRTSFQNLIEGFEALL
Sequence of human TYK2 catalytic kinase (JH1) domain (P29597 897-1176): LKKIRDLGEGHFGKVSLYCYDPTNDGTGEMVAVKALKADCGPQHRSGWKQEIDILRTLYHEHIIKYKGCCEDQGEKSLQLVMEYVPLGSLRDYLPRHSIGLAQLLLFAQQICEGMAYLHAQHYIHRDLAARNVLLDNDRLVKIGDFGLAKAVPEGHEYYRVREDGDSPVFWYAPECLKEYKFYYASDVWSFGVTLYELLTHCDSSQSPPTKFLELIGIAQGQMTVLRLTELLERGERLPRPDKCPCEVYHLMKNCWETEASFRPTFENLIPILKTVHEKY

With `Cn1cc(-c2cc3c(N4CC5CCC(C4)N5C(=O)C4(F)CC4)ccnc3[nH]2)cn1` [Example 240, (1-fluorocyclopropyl)(3-(2-(1-methyl-1H-pyrazol-4-yl)-1H-pyrrolo[2,3-b]pyridin-4-yl)-3,8-diazabicyclo[3.2.1]octan-8-yl)methanone], the 50% inhibitory concentration (IC50) in assay [1] was determined as 44 nM; in assay [2] it was 42 nM; in assay [3], 35 nM; in assay [4], 4.4 nM.
Turning to `Cn1ncc(-c2cc3c(N4CC5CCC(C4)N5C(=O)C4(F)CC4)ccnc3[nH]2)c1F` [Example 242, (3-(2-(5-fluoro-1-methyl-1H-pyrazol-4-yl)-1H-pyrrolo[2,3-b]pyridin-4-yl)-3,8-diazabicyclo[3.2.1]octan-8-yl)(1-fluorocyclopropyl)methanone], the IC50 in assay [1] was found to be 362 nM; in assay [2], 690 nM; in assay [3] it was 296 nM; in assay [4], 113 nM.
Take `Cn1cc(-c2cc3c(N4CC5CCC(C4)N5C(=O)C4(F)CC4)ccnc3[nH]2)c(F)n1` [Example 243, (3-(2-(3-fluoro-1-methyl-1H-pyrazol-4-yl)-1H-pyrrolo[2,3-b]pyridin-4-yl)-3,8-diazabicyclo[3.2.1]octan-8-yl)(1-fluorocyclopropyl)methanone]: the IC50 was determined as 79 nM in assay [1], 26 nM in assay [2], 27 nM in assay [3] and 2.8 nM in assay [4].
Turning to `Cn1cc(-c2cc3c(N4CC5CCC(C4)N5C(=O)[C@@H]4C[C@H]4F)ccnc3[nH]2)c(F)n1` [Example 244, (3-(2-(3-fluoro-1-methyl-1H-pyrazol-4-yl)-1H-pyrrolo[2,3-b]pyridin-4-yl)-3,8-diazabicyclo[3.2.1]octan-8-yl)((1S,2R)-2-fluorocyclopropyl)methanone], the IC50 is 18 nM in assay [1], 4 nM in assay [2], 73 nM in assay [3] and 0.2 nM in assay [4].
As to `COc1cc(-c2cc3c(N4CC5CCC(C4)N5C(=O)[C@@H]4C[C@H]4F)ccnc3[nH]2)ccn1` [Example 245, ((1S,2R)-2-fluorocyclopropyl)(3-(2-(2-methoxypyridin-4-yl)-1H-pyrrolo[2,3-b]pyridin-4-yl)-3,8-diazabicyclo[3.2.1]octan-8-yl)methanone], the IC50 in assay [1] was found to be 7 nM; in assay [2], 11 nM; in assay [3], 115 nM; in assay [4], 0.4 nM.
Taken in the same sequence, the figures for `COc1nccc(-c2cc3c(N4CC5CCC(C4)N5C(=O)[C@@H]4C[C@H]4F)ccnc3[nH]2)c1F` [Example 247, ((1S,2R)-2-fluorocyclopropyl)(3-(2-(3-fluoro-2-methoxypyridin-4-yl)-1H-pyrrolo[2,3-b]pyridin-4-yl)-3,8-diazabicyclo[3.2.1]octan-8-yl)methanone] were 40 nM, 18 nM, 168 nM and 1.4 nM.
Turning to `COc1cc(-c2cn3nccc(N4CC5CCC(C4)N5C(=O)[C@@H]4C[C@H]4F)c3n2)ccn1` [Example 248, ((1S,2R)-2-fluorocyclopropyl)(3-(2-(2-methoxypyridin-4-yl)imidazo[1,2-b]pyridazin-8-yl)-3,8-diazabicyclo[3.2.1]octan-8-yl)methanone], the IC50 in assay [1] was 23 nM; in assay [2], 48 nM; in assay [3] it was 515 nM; in assay [4], 9.5 nM.
`Cc1c(-c2cnn(C)c2)[nH]c2nccc(N3CC4CCC(C3)N4C(=O)[C@@H]3C[C@H]3F)c12` [Example 249, ((1S,2R)-2-fluorocyclopropyl)(3-(3-methyl-2-(1-methyl-1H-pyrazol-4-yl)-1H-pyrrolo[2,3-b]pyridin-4-yl)-3,8-diazabicyclo[3.2.1]octan-8-yl)methanone]: the IC50 in assay [1] came out at 1240 nM; in assay [2], 251 nM; in assay [3] it was 2810 nM; in assay [4], 19 nM.
